Reference: the CheMixHub viscosity set
Values joined by “and” are separate entries in the source; they are usually repeats but may differ in a detail not shown here. Equal entries are not always repeated.

Test: xn = mol fraction of the nth substance listed

NCCO + O
Conditions | viscosity
293.15 K, 100 kPa, x2 = 0.46 | 21.2 mPa·s
293.15 K, 101 kPa, x1 = 0.03289 | 1.389 mPa·s
293.15 K, 101 kPa, x1 = 0.06899 | 1.903 mPa·s
293.15 K, 101 kPa, x1 = 0.069 | 1.88 mPa·s
293.15 K, 101 kPa, x1 = 0.0699 | 1.953 mPa·s
293.15 K, 101 kPa, x1 = 0.1124 | 3.125 mPa·s
293.15 K, 101 kPa, x1 = 0.1654 | 4.243 mPa·s
293.15 K, 101 kPa, x1 = 0.23 | 6.17 mPa·s
293.15 K, 101 kPa, x1 = 0.3043 | 9.893 mPa·s
293.15 K, 101 kPa, x1 = 0.47 | 16.6 mPa·s
293.15 K, 101 kPa, x1 = 0.6204 | 23.11 mPa·s
293.15 K, 101 kPa, x1 = 0.803 | 25.85 mPa·s
293.15 K, 101 kPa, x2 = 0.84 | 4.64 mPa·s
293.15 K, 101 kPa, x2 = 0.93 | 2.002 mPa·s
293.15 K, 101.3 kPa, x1 = 0.07 | 2.005 mPa·s
293.15 K, 101.3 kPa, x1 = 0.2 | 4.667 mPa·s and 7.345 mPa·s
293.15 K, 101.3 kPa, x1 = 0.3 | 11.29 mPa·s
293.15 K, 101.3 kPa, x1 = 0.4 | 15.77 mPa·s
293.15 K, 101.3 kPa, x1 = 0.5 | 21 mPa·s
293.15 K, 101.3 kPa, x1 = 0.7 | 24.02 mPa·s
298.14 K, 100 kPa, x1 = 0.112 | 2.464 mPa·s
298.15 K, 100 kPa, x1 = 0.069 | 1.621 mPa·s
298.15 K, 100 kPa, x1 = 0.11 | 2.415 mPa·s
298.15 K, 100 kPa, x1 = 0.112 | 2.467 mPa·s and 2.464 mPa·s
298.15 K, 101 kPa, x1 = 0.03289 | 1.224 mPa·s
298.15 K, 101 kPa, x1 = 0.06899 | 1.689 mPa·s
298.15 K, 101 kPa, x1 = 0.1121 | 2.44 mPa·s
298.15 K, 101 kPa, x1 = 0.1122 | 2.54 mPa·s
298.15 K, 101 kPa, x1 = 0.1124 | 2.714 mPa·s
298.15 K, 101 kPa, x1 = 0.1422 | 3.11 mPa·s
298.15 K, 101 kPa, x2 = 0.84 | 3.41 mPa·s and 3.76 mPa·s
298.15 K, 101 kPa, x2 = 0.8878 | 2.52 mPa·s
298.15 K, 101 kPa, x2 = 0.89 | 2.46 mPa·s
298.15 K, 101.3 kPa, x1 = 0.03 | 1.299 mPa·s
298.15 K, 101.3 kPa, x1 = 0.1 | 2.489 mPa·s
298.15 K, 101.3 kPa, x1 = 0.2 | 3.765 mPa·s and 5.547 mPa·s
298.15 K, 101.3 kPa, x1 = 0.3 | 9.062 mPa·s
298.15 K, 101.3 kPa, x1 = 0.4 | 12.6 mPa·s
298.15 K, 101.3 kPa, x1 = 0.5 | 16.29 mPa·s
298.15 K, 101.3 kPa, x1 = 0.7 | 19.9 mPa·s
303.15 K, 100 kPa, x1 = 0.1 | 1.91 mPa·s
303.15 K, 100 kPa, x1 = 0.2 | 3.87 mPa·s
303.15 K, 100 kPa, x1 = 0.3 | 6.67 mPa·s
303.15 K, 100 kPa, x1 = 0.4 | 9.68 mPa·s
303.15 K, 100 kPa, x1 = 0.5 | 12.3 mPa·s
303.15 K, 100 kPa, x1 = 0.6 | 14 mPa·s
303.15 K, 100 kPa, x2 = 0.46 | 13.1 mPa·s
303.15 K, 101 kPa, x1 = 0.03289 | 1.087 mPa·s
303.15 K, 101 kPa, x1 = 0.06899 | 1.482 mPa·s
303.15 K, 101 kPa, x1 = 0.0699 | 1.477 mPa·s and 1.177 mPa·s
303.15 K, 101 kPa, x1 = 0.1122 | 2.19 mPa·s
303.15 K, 101 kPa, x1 = 0.1124 | 2.397 mPa·s
303.15 K, 101 kPa, x1 = 0.1422 | 2.65 mPa·s
303.15 K, 101 kPa, x1 = 0.1654 | 3.059 mPa·s
303.15 K, 101 kPa, x1 = 0.3043 | 6.608 mPa·s
303.15 K, 101 kPa, x1 = 0.6204 | 13.65 mPa·s
303.15 K, 101 kPa, x1 = 0.803 | 15.72 mPa·s
303.15 K, 101 kPa, x2 = 0.84 | 3.27 mPa·s
303.15 K, 101 kPa, x2 = 0.93 | 1.496 mPa·s
303.15 K, 101.3 kPa, x1 = 0.03 | 1.121 mPa·s
303.15 K, 101.3 kPa, x1 = 0.07 | 1.501 mPa·s
303.15 K, 101.3 kPa, x1 = 0.1 | 2.195 mPa·s
303.15 K, 101.3 kPa, x1 = 0.2 | 3.279 mPa·s and 4.96 mPa·s
303.15 K, 101.3 kPa, x1 = 0.3 | 7.417 mPa·s
303.15 K, 101.3 kPa, x1 = 0.4 | 10.31 mPa·s
303.15 K, 101.3 kPa, x1 = 0.5 | 13.15 mPa·s
308.15 K, 101 kPa, x1 = 0.03289 | 0.973 mPa·s
308.15 K, 101 kPa, x1 = 0.06899 | 1.31 mPa·s
308.15 K, 101 kPa, x1 = 0.1124 | 2.143 mPa·s
313 K, 101 kPa, x1 = 0.11 | 1.57 mPa·s
313.15 K, 100 kPa, x1 = 0.1 | 1.48 mPa·s
313.15 K, 100 kPa, x2 = 0.46 | 8.59 mPa·s
313.15 K, 101 kPa, x1 = 0.03289 | 0.878 mPa·s
313.15 K, 101 kPa, x1 = 0.11 | 1.66 mPa·s
313.15 K, 101 kPa, x1 = 0.1124 | 1.95 mPa·s
313.15 K, 101 kPa, x1 = 0.1422 | 1.99 mPa·s
313.15 K, 101 kPa, x1 = 0.3043 | 4.654 mPa·s
313.15 K, 101 kPa, x1 = 0.803 | 10.54 mPa·s
313.15 K, 101 kPa, x2 = 0.84 | 2.3 mPa·s
313.15 K, 101 kPa, x2 = 0.93 | 1.163 mPa·s
313.15 K, 101.3 kPa, x1 = 0.03 | 0.909 mPa·s
313.15 K, 101.3 kPa, x1 = 0.2 | 3.423 mPa·s
313.15 K, 101.3 kPa, x1 = 0.3 | 5.291 mPa·s
313.15 K, 101.3 kPa, x1 = 0.4 | 7.024 mPa·s
313.15 K, 101.3 kPa, x1 = 0.5 | 8.95 mPa·s
318.15 K, 101 kPa, x1 = 0.03289 | 0.798 mPa·s
318.15 K, 101 kPa, x1 = 0.06899 | 1.048 mPa·s
323 K, 101 kPa, x1 = 0.11 | 1.22 mPa·s
323.15 K, 100 kPa, x2 = 0.46 | 5.92 mPa·s
323.15 K, 101 kPa, x1 = 0.03289 | 0.731 mPa·s
323.15 K, 101 kPa, x1 = 0.06899 | 0.948 mPa·s
323.15 K, 101 kPa, x1 = 0.069 | 0.94 mPa·s
323.15 K, 101 kPa, x1 = 0.0699 | 0.973 mPa·s
323.15 K, 101 kPa, x1 = 0.1654 | 1.76 mPa·s
323.15 K, 101 kPa, x1 = 0.23 | 2.57 mPa·s
323.15 K, 101 kPa, x1 = 0.3043 | 3.401 mPa·s
323.15 K, 101 kPa, x1 = 0.47 | 5.37 mPa·s
323.15 K, 101 kPa, x1 = 0.6204 | 6.592 mPa·s
323.15 K, 101 kPa, x1 = 0.803 | 7.219 mPa·s
323.15 K, 101 kPa, x2 = 0.84 | 1.78 mPa·s
323.15 K, 101 kPa, x2 = 0.89 | 1.23 mPa·s
323.15 K, 101 kPa, x2 = 0.93 | 0.942 mPa·s
323.15 K, 101.3 kPa, x1 = 0.03 | 0.715 mPa·s
323.15 K, 101.3 kPa, x1 = 0.07 | 0.945 mPa·s
323.15 K, 101.3 kPa, x1 = 0.1 | 1.338 mPa·s
323.15 K, 101.3 kPa, x1 = 0.2 | 1.782 mPa·s and 2.566 mPa·s
323.15 K, 101.3 kPa, x1 = 0.3 | 3.771 mPa·s
323.15 K, 101.3 kPa, x1 = 0.4 | 5.055 mPa·s
323.15 K, 101.3 kPa, x1 = 0.5 | 6.273 mPa·s
323.15 K, 101.3 kPa, x1 = 0.7 | 7.09 mPa·s
